Reference: patent US20240108645A1, “SENESCENCE AND SENESCENCE ASSOCIATED SECRETORY PHENOTYPE” (Metro Biotech NSW Pty Ltd, priority 2013, published 2024)
Entries after “also recorded” stand apart in the source; their conditions may differ.

Legend:
C2C12 myoblasts [1] = test: SA-β-Gal activity in C2C12 myoblasts by flow cytometry with C12FDG; format: cell-based
Procedure: To determine the ability of NAD^+ agonists to prevent or reduce senescence associated with treatment with corticoids, C2C12 myoblasts were assayed for SA-β-Gal activity following contact with vehicle, NMN, apigenin, dexamethasone, dexamethasone and NMN, and dexamethasone and apigenin. SA-β-Gal activity was determined using the fluorogenic substrate, C12FDG, by flow cytometry (protocol of Debacq-Chainiaux et al. Nature Protocols 2009). FIG. 7A: […] FIGS. 7B and 7C: […] SA-β-Gal activity was decreased with NMN and/or apigenin. All data are presented as the mean value. * p<0.05, **** p<0.0001, using two-way ANOVA multiple comparisons test.

p16^INK4a [2] = test: Imiquimod-induced skin senescence in p16^LUC mice, bioluminescence imaging; format: in vivo, SKH1 hairless p16^LUC mice
Source text: In order to study the effects of NAD^+ agonists on cellular senescence associated with the skin, which is associated with inflammation, senescence was induced in a luciferase knockin (p16^LUC) mouse (Burd et al. (2013) Cell 152: 340-351) using topical application of Imiquimod. Imiquimod (IMQ) is an immune modulator topically applied for skin conditions such as melanoma and genital warts. The side effect of IMQ is severe, painful inflammation and aging of the skin.
P16^LUC mice contain the firefly luciferase cDNA inserted into the translational start site of the endogenous p16^INK4a gene. Conditions which induce expression of the p16^INK4a gene, and therefore induce cellular senescence, also induce expression of firefly luciferase in p16^LUC mice (Burd et al. […] Cell 152:340-351; Sorrentino et al. (2014) The Journal of Clinical Investigation, 124(1): 169-351).
The following formulations were prepared: • 1. Cream carrier (containing no IMQ) (control or ctrl); • 2. IMQ cream (containing 5% IMQ) mixed with 10% water (IMQ); and • 3. IMQ cream (containing 5% IMQ) mixed with […] NMN (equating to 5% NMN) (IMQ+NMN).
Each of 1, 2 and 3 were applied daily to the rump of SKH1 hairless p16^LUC mice for 4 days. The animals were subjected to bioluminescence imaging as a readout for senescence. Areas of fluorescence are indicated as darkened areas in FIG. 4.

[3] = Blood glucose and free water (echoMRI) in dexamethasone treated rats; format: in vivo, Sprague-Dawley rats; conditions: dexamethasone sodium phosphate 0.8 mg/kg plus NMN 1.5 g/kg i.p., one day after injection; vs dexamethasone
Procedure: To study the effects of NAD^+ agonists on senescence associated with treatment with corticoids, 250 g Sprague-Dawley rats were administered daily intraperitoneal injections of the following formulations for 3 days: • 1. Vehicle: saline • 2. Dexamethasone: 0.8 mg/kg of animal dexamethasone sodium phosphate • 3. Dexamethasone+NMN: 0.8 mg/kg body weight dexamethasone sodium phosphate and 1.5 g/kg body weight NMN.
After 3 days, blood glucose was determined.
Free water was assessed by echMRI one day after injection of the above formulations.

3T3-L1 adipocytes [4] = test: SA-β-gal chromogenic staining of dexamethasone treated 3T3-L1 adipocytes; format: cell-based; conditions: 5 days; dexamethasone 1, 0.5, 0.1 or 0.01 mg/ml; 1 mM NMN, 25 mM apigenin
Procedure: To further investigate the effects of NAD^+ agonists on dexamethasone induced senescence, 3T3-L1 adipocytes were treated for 5 days with ethanol (control), or 1 mg/ml, 0.5 mg/ml, 0.1 mg/ml or 0.01 mg/ml of dexamethasone in combination with either DMSA, 1 mM NMN, 25 mM apigenin, or 1 mM NMN and 25 mM apigenin and subjected to senescence associated beta-galactosidase staining according to the chromogenic protocol of Debacq-Chainiaux F et al Nature Protocols 2009.

C2C12 myoblasts [5] = test: SA-β-Gal staining of C2C12 myoblasts incubated with various agents; format: cell-based
Procedure: The ability of NAD^+ agonists to reduce senescence associated with various agents was tested by inclubating C2C12 myoblasts with various agents in the presence or absence of NMN or apigenin, and the cells subsequent stained as mentioned above for SA-β-Gal activity. The following agents were tested: [table]

3T3-L1 adipocytes [6] = test: Intracellular lipid content (oil red o) of 3T3-L1 adipocytes treated with antiretroviral agents
Procedure: The ability of NAD^+ agonists to reduce or prevent lipodystrophy associated with anti-retroviral compounds was assessed. The ability of NMN to prevent or reduce lipodystrophy was tested by determining the lipid content of 3T3-L1 adipocytes treated with a vehicle, or the antiretroviral agent stavudine, either alone or in combination with NMN.
3T3-L1 adipocytes were treated for 24 hr with the HIV antiretroviral compound stavudine (10 nM) in the presence or absence of NMN (1 mM). Intracellular lipid content was assessed using oil red o staining, which was quantified by reading absorbance at 544 nm. Error bars: SD.
In order to further test the ability of NAD^+ agonists to reduce lipodystrophy associated with antiretroviral agents, 3T3-L1 adipocytes were treated for 24 hr with various antiretroviral compounds (30 μM) in the presence or absence of NMN (1 mM) or apigenin (25 μM). Intracellular lipid content was assessed using oil red o staining, which was quantified by reading absorbance at 544 nm.

CD38 = target: T1, CD38 (Homo sapiens, UniProt P28907); conditions: in vitro; Esande et al. (2013) Diabetes; cited from earlier work
T1 sequence (P28907 1-300): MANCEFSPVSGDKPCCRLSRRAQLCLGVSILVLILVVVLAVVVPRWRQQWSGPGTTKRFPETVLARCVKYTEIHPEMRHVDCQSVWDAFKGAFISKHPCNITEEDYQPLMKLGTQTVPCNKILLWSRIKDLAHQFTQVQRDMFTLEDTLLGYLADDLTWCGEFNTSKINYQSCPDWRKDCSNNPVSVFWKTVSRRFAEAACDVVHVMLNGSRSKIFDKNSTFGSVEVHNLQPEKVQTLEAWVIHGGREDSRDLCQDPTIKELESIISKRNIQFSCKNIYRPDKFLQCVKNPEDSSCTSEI

p16^INK4A [7] = test: Doxorubicin-induced senescence in p16^LUC mice, bioluminescence/CT imaging; format: in vivo; conditions: doxorubicin alone 1 mg/kg i.p.; imaging 24 hours after treatment
Procedure: Vehicle control: 10% DMSO in PBS administered intraperitoneally; • 2. Apigenin: administered in diet at 500 mg/kg of food in addition to vehicle control administered i.p.; • 3. […] Apigenin administered in chow diet at 500 mg/kg of food, and doxorubicin administered at 1 mg/kg body weight i.p. Apigenin was administered 4 days prior to administration of doxorubicin. The animals were subjected to bioluminescence/CT imaging (Spectrum-CT instrument, PerkinElmer) as a readout for senescence 24 hours after treatment was completed. Areas of luminescence are shown as lightened areas in FIG. 5 and are indicated by an arrow.

[8] = Body weight after doxorubicin; format: in vivo, male C57BL6 mice; conditions: doxorubicin 10 mg/kg i.p. single dose at day 8
Procedure: Vehicle control: 10% DMSO in PBS administered intraperitoneally; • 2. Apigenin: administered in diet at 500 mg/kg of diet, in addition to vehicle control administered i.p.; • 3. […] Apigenin administered in diet of 500 mg/kg of diet, and doxorubicin administered at 10 mg/kg body weight i.p. Apigenin was administered 8 days prior to administration of a single dose of doxorubicin. Body weight was assessed during the course of the experiment as a read-out of general health and malaise, the results of which are shown in FIG. 11.

NC(=O)c1ccc[n+]([C@@H]2O[C@H](COP(=O)([O-])O)[C@@H](O)[C@H]2O)c1 [NMN, nicotinamide mononucleotide]
SA-β-Gal activity (FIG. 7A) (C2C12 myoblasts [1]; 48 hours, NMN 1 mM, both ethanol vehicle and dexamethasone (0.1 μg/ml) treated groups): significantly reduced SA-β-Gal activity
SA-β-Gal activity (FIG. 7B) (C2C12 myoblasts [1]; 72 hours, dexamethasone sodium phosphate 250 nM or PBS, NMN 1 mM or apigenin 25 uM): decreased
SA-β-Gal activity (FIG. 7C) (C2C12 myoblasts [1]; 96 hours, dexamethasone sodium phosphate 250 nM or PBS, NMN 1 mM or apigenin 25 uM): decreased
percentage of cells which exhibited SA-β-Gal activity following treatment with dexamethasone (C2C12 myoblasts [1]; summary of FIGS. 7A-7C): reduced the percentage of cells which exhibited SA-β-Gal activity
erythema, scaling and redness of skin (p16^INK4a [2]; IMQ and NMN topical vs IMQ): less erythema, scaling and redness
p16^IN14a induction (bioluminescence) (p16^INK4a [2]; IMQ cream (5% IMQ) mixed with NMN (5% NMN), topical daily for 4 days, vs IMQ): little or no signs of p16^IN14a induction
free water (echoMRI) [3]: reversed this effect
SA-β-gal staining (blue cells), dexamethasone induced senescence (3T3-L1 adipocytes [4]): reduced SA-β-gal staining; also recorded: reduce or prevent senescence induced by dexamethasone
extent of senescence (proportion of cells stained blue, SA-β-Gal activity) (C2C12 myoblasts [5]; agents of the table of b212 with vs without apigenin or NMN): reduce the extent of senescence induced by the agents tested
extent to which the cells undergo senescence (C2C12 myoblasts [5]; co-administration with AZT, 3TC, zalcitabine, efavirenze, lopinavir, ritonavir, nevirapine, tipranavir, tenofovir, invirase vs agent alone): reduces the extent to which the cells undergo senescence
extent to which the cells undergo senescence (C2C12 myoblasts [5]; co-administration with PPARγ agonist rosiglitazone vs rosiglitazone alone): reduces the extent to which the cells undergo senescence
extent to which the cells undergo senescence (C2C12 myoblasts [5]; co-administration with antiprotozoal agent quinacrine vs quinacrine alone): reduces the extent to which the cells undergo senescence
extent to which the cells undergo senescence (C2C12 myoblasts [5]; co-administration with each of the chemotherapeutic agents listed in b109 vs agent alone): reduces the extent to which the cells undergo senescence
extent to which the cells undergo senescence (C2C12 myoblasts [5]; co-administration with xanthine oxidase inhibitor allopurinol vs allopurinol alone): reduces the extent to which the cells undergo senescence
extent to which the cells undergo senescence (C2C12 myoblasts [5]; co-administration with zolendronate vs zolendronate alone): reduces the extent to which the cells undergo senescence
lipodystrophy (intracellular lipid content, oil red o) (3T3-L1 adipocytes [6]; NMN 1 mM, cells treated 24 hr with 30 μM AZT, 3TC, stavudine, Efavirenz, Lopinavir, Ritonavir, Tipranavir): reduced lipodystrophy
intracellular lipid content (oil red o, absorbance at 544 nm) (3T3-L1 adipocytes [6]; stavudine 10 nM and NMN 1 mM, 24 hr, vs NMN and vehicle): no reduction in lipid content

O=c1c(O)c(-c2ccc(O)c(O)c2)oc2cc(O)cc(O)c12 [quercetin, 2-(3,4-dihydroxyphenyl)-3,5,7-trihydroxy-4H-chromen-4-one, reference compound]
inhibition of CD38 activity (CD38): inhibitors of CD38 activity in vitro

COc1cccc2c1C(=O)c1c(O)c3c(c(O)c1C2=O)C[C@@](O)(C(=O)CO)C[C@@H]3O[C@H]1C[C@H](N)[C@H](O)[C@H](C)O1 [doxorubicin, reference compound]
p16^INK4A induction (bioluminescence) (p16^INK4A [7]): large areas of bioluminescence
body weight [8]: permanent loss of body weight for at least 40 days
